According to ChEMBL document CHEMBL4393720, “Design, synthesis and biological evaluation of bromophenol-thiazolylhydrazone hybrids inhibiting the interaction of translation initiation factors eIF4E/eIF4G as multifunctional agents for cancer treatment” (Eur J Med Chem, 2019):
Activity calls are given as the source filed them. The calls are words filed in the database; no cut-off is given here.

Experiments:
[1] = test system: A549; experiment: Induction of ROS generation in human A549 cells at 1 to 5 uM incubated for 48 hrs by DCFH-DA staining based FACS analysis; format: functional, cell-based
[2] = Cmax in female Sprague-Dawley rat at 10 mg/kg, po measured up to 24 hrs by LC/MS-MS analysis; format: ADME, organism-based; set-up: dose 10 mg/kg, route oral; conditions: in vivo
[3] = test system: A549; experiment: Induction of autophagy in human A549 cells assessed as autophagic bodies formation at 2.5 uM incubated for 48 hrs by transmission electron microscopy; format: functional, cell-based
[4] = Half life in male Sprague-Dawley rat at 2 mg/kg, iv measured up to 24 hrs by LC/MS-MS analysis; format: ADME, organism-based; conditions: in vivo
[5] = Acute toxicity in SPF Kunming mouse assessed as body weight at 2000 mg/kg, po administered as single dose measured at day 14 (reference value: 34.7g); format: organism-based; conditions: in vivo
[6] = test system: HUVEC; experiment: Antiproliferative activity against human HUVEC cells assessed as inhibition of cell growth incubated for 48 hrs by MTT assay; format: cell-based
[7] = test system: A549; experiment: Antitumor activity against human A549 cells xenografted in athymic nude mouse assessed as necrosis of tumor cells and loosely packed cells at 25 to 50 mg/kg, ip administered once daily for 21 days by hematoxylin and eosin staining based microscopic analysis; format: functional, organism-based
[8] = test system: Caco-2; experiment: Antiproliferative activity against human Caco2 cells assessed as inhibition of cell growth incubated for 48 hrs by MTT assay; format: functional, cell-based; conditions: Caco-2, 48 h
[9] = test system: A549; experiment: In vivo inhibition of PI3K/Akt/mTOR signalling pathway in human A549 cells xenografted in athymic nude mouse assessed as decrease in phosphorylation of mTOR at 25 to 50 mg/kg, ip administered once daily for 21 days by Western blot analysis; format: functional, organism-based
[10] = test system: A549; experiment: In vivo inhibition of eIF4E in human A549 cells xenografted in athymic nude mouse assessed as decrease in phosphorylation of eIF4E at 25 to 50 mg/kg, ip administered once daily for 21 days by Western blot analysis; format: functional, organism-based
[11] = AUC (0 to 24 hrs) in female Sprague-Dawley rat at 2 mg/kg, iv measured up to 24 hrs by LC/MS-MS analysis; format: ADME, organism-based; set-up: time < 24 hr, dose 2 mg/kg, route intravenous; conditions: in vivo
[12] = Subacute toxicity in SPF Kunming mouse assessed as mortality at 2000 mg/kg, po administered once a day for 14 days; format: organism-based; conditions: in vivo, 336 h
[13] = AUC (0 to 24 hrs) in female Sprague-Dawley rat at 10 mg/kg, po measured up to 24 hrs by LC/MS-MS analysis; format: ADME, organism-based; set-up: time < 24 hr, dose 10 mg/kg, route oral; conditions: in vivo
[14] = target: Eukaryotic translation initiation factor 4E (Homo sapiens) (UniProt P06730); experiment: Inhibition of eIF4E phosphorylation in human A549 cells assessed as decrease in cyclin D1 level at 1 to 5 uM incubated for 48 hrs by western blot analysis; format: cell-based
[15] = Oral bioavailability in female Sprague-Dawley rat at 10 mg/kg measured up to 24 hrs by LC/MS-MS analysis; format: ADME, organism-based; conditions: in vivo
[16] = Subacute toxicity in SPF Kunming mouse assessed as kidney morphological changes at 2000 mg/kg, po administered once a day for 14 days by H and E staining based microscopic analysis; format: organism-based; conditions: in vivo, 336 h
[17] = test system: A549; experiment: Induction of autophagy in human A549 cells infected with Ad-mCherry-GFP-LC3B assessed as LC3 aggregate formation at 2.5 uM incubated for 48 hrs by fluorescence microscopy; format: functional, cell-based
[18] = test system: A549; experiment: Induction of apoptosis in human A549 cells assessed as increase in Bax level at 1 to 5 uM incubated for 48 hrs by Western blot analysis; format: functional, cell-based
[19] = Acute toxicity in SPF Kunming mouse assessed as body weight at 500 mg/kg, po administered as single dose measured at day 14 (reference value: 34.7g); format: organism-based; conditions: in vivo
[20] = MRT in male Sprague-Dawley rat at 2 mg/kg, iv measured up to 24 hrs by LC/MS-MS analysis; format: ADME, organism-based; conditions: in vivo
[21] = Inhibition of PI3K/AKT/mTOR in human A549 cells assessed as decrease in 4EBP1 phosphorylation at 1 to 5 uM incubated for 48 hrs by western blot analysis; format: cell-based
[22] = Tmax in male Sprague-Dawley rat at 2 mg/kg, iv measured up to 24 hrs by LC/MS-MS analysis; format: ADME, organism-based; conditions: in vivo
[23] = Acute toxicity in SPF Kunming mouse assessed as body weight at 1000 mg/kg, po administered as single dose measured at day 7 (reference value: 30.2g); format: organism-based; conditions: in vivo
[24] = Inhibition of PI3K/Akt/mTOR signalling pathway in human A549 cells assessed as reduction in PI3K phosphorylation at 1 to 5 uM incubated for 48 hrs by Western blot analysis; format: cell-based
[25] = target: Eukaryotic translation initiation factor 4E (Homo sapiens) (UniProt P06730); experiment: Inhibition of eIF4E phosphorylation in human A549 cells assessed as decrease in c-myc expression at 1 to 5 uM incubated for 48 hrs by western blot analysis; format: cell-based
[26] = test system: A549; experiment: In vivo inhibition of PI3K/Akt/mTOR signalling pathway in human A549 cells xenografted in athymic nude mouse assessed as decrease in phosphorylation of Akt at 25 to 50 mg/kg, ip administered once daily for 21 days by Western blot analysis; format: functional, organism-based
[27] = Inhibition of PI3K/Akt/mTOR in human A549 cells assessed as increase in eIF4E/4EBP1 interaction incubated for 48 hrs by m7GTP pull down assay; format: cell-based
[28] = test system: A549; experiment: Antiproliferative activity against human A549 cells assessed as inhibition of cell growth incubated for 48 hrs by MTT assay; format: functional, cell-based; conditions: A549, 48 h
[29] = AUC (0 to 24 hrs) in male Sprague-Dawley rat at 2 mg/kg, iv measured up to 24 hrs by LC/MS-MS analysis; format: ADME, organism-based; set-up: dose 2 mg/kg, time < 24 hr, route intravenous; conditions: in vivo
[30] = Acute toxicity in SPF Kunming mouse assessed as body weight at 2000 mg/kg, po administered as single dose measured at day 7 (reference value: 30.2g); format: organism-based; conditions: in vivo
[31] = test system: A549; experiment: Antitumor activity against human A549 cells xenografted in athymic nude mouse assessed as decrease in tumor growth at 25 mg/kg, ip administered once daily for 21 days; format: functional; conditions: 504 h
[32] = test system: A549; experiment: Induction of apoptosis in human A549 cells at 2.5 uM incubated for 48 hrs in presence of pan caspase inhibitor, Z-VAD-FMK by annexin-V and propidium iodide staining based flow cytometric analysis; format: functional, cell-based
[33] = Acute toxicity in SPF Kunming mouse assessed as body weight at 500 mg/kg, po administered as single dose measured at day 7 (reference value: 30.2g); format: organism-based; conditions: in vivo
[34] = test system: HepG2; experiment: Antiproliferative activity against human HepG2 cells assessed as inhibition of cell growth incubated for 48 hrs by MTT assay; format: functional, cell-based; conditions: HepG2, 48 h
[35] = Half life in female Sprague-Dawley rat at 2 mg/kg, iv measured up to 24 hrs by LC/MS-MS analysis; format: ADME, organism-based; conditions: in vivo
[36] = test system: A549; experiment: In vivo inhibition of PI3K/Akt/mTOR in human A549 cells xenografted in athymic nude mouse assessed as decrease in phosphorylation of 4EBP1 at 25 to 50 mg/kg, ip administered once daily for 21 days by immunocytochemistry; format: functional, organism-based
[37] = Toxicity in athymic nude mouse xenografted with human A549 cells assessed as effect on liver morphological changes at 25 to 50 mg/kg, ip administered once daily for 21 days by H and E staining based assay; format: organism-based; conditions: in vivo, 504 h

Sequence of Eukaryotic translation initiation factor 4E (Homo sapiens) (P06730 whole entry): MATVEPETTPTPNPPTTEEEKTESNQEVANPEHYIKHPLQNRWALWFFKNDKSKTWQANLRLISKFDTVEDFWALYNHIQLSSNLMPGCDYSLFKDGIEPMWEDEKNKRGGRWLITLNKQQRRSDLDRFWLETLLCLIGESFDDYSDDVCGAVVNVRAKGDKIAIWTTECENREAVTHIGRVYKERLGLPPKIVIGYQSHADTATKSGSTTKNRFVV

**Q.** What does the source list for `Fc1ccc(/C=N/Nc2nc(-c3ccc(C(F)(F)F)cc3)cs2)cc1F`?
**A.** Activity [1]: Active; Cmax [2]: 960 nM; Activity [3]: Active; half-life [4]: 2.83 h; Activity [5]: 35 g; IC50 [6]: 79.5 µM; Activity [7]: Active; IC50 [8]: 14.6 µM; inhibition [9]: Active; inhibition [10]: Active; AUC(0-t) at 24 h [11]: 133 µM·h; Activity [12]: Non-Toxic; AUC(0-t) at 24 h [13]: 8.25 µM·h; inhibition [14]: Active; bioavailability [15]: 31%; Activity [16]: Non-Toxic; Activity [17]: Active; Activity [18]: Active; Activity [19]: 33.3 g; MRT [20]: 4.42 h; inhibition [21]: Active; Tmax [22]: 2 h; Activity [23]: 30.5 g; inhibition [24]: Active; inhibition [25]: Active; inhibition [26]: Active; Activity [27]: Active; IC50 [28]: 2.61 µM; AUC(0-t) at 24 h [29]: 155 µM·h; Activity [30]: 29.9 g; inhibition in vivo at 25 mg/kg [31]: 62%; Activity [32]: inactive; Activity [33]: 29.1 g; IC50 [34]: 14.5 µM; half-life [35]: 3.25 h; inhibition [36]: Active; Activity [37]: Non-Toxic
